In patent US8569489B2 (A.B. Intelpharm Limited, priority 2007, dated 2013):
Structures can show the parent of a compound that is named as a salt. Where two headings read alike, the source gives them in different places. Blank lines part the entries; values can stand above or below the compound they belong to.

How the values were obtained:
[1] = pH of aqueous solution of salts; assay type: physicochemical
[2] = system: H1-histamine receptors (bronchoconstrictor effect of histamine); experiment: Anesthetized guinea pigs, antagonism of the bronchoconstrictor effect of histamine (histamine bronchospasm model); assay type: in vivo, guinea pig; settings: for ED50: Cavia porcellus; for Duration of effective blockade of H1-histamine receptors: histamine bronchospasm model, oral dose of 3 mg/kg
Method: In tests on intact animals, substances were administered intravenously (5 minutes before the administration of histamine) and orally (2 hours before the beginning of the study).

histamine-induced itch = experiment: Itching induced by instillation of histamine solution into the eye of conscious guinea pigs; assay type: in vivo, guinea pig; settings: 3 mg/kg administered orally
Description: (Rukovodstvo po […] [Manual on experimental study of new pharmacological substances], Moscow, 2005, p. 511)

mice [3] = settings: mice perorally; literature value (footnotes * and **); cited from earlier work
[4] = system: isolated guinea pig ileum (spasmogenic effect of histamine); experiment: Isolated guinea pig ileum, suppression of the spasmogenic effect of histamine; assay type: cell-based; settings: histamine spasm, read-out: Antihistaminic activity, isolated ileum of guinea pig, IC50
Description: Study of the antihistaminic activity of the compounds on which a claim is made was done using known methodologies (Rukovodstvo po eksperimental'nomu izucheniyu novykh farmakologicheskikh veshchestv [Manual on experimental study of new pharmacological substances], Moscow, 2005, p. 489) on isolated guinea pig ileum (suppression of the spasmogenic effect of histamine) and on anesthetized guinea pigs (antagonism in relation to the bronchoconstrictor effect of histamine). In tests on intact animals, substances were administered intravenously (5 minutes before the administration of histamine) and orally (2 hours before the beginning of the study).

[5] = system: passive cutaneous anaphylaxis; experiment: Passive cutaneous anaphylaxis model in rats; assay type: in vivo, rat
Description: (Rukovodstvo po eksperimental'nomu izucheniyu novykh farmakologicheskikh veshchestv [Manual on experimental study of new pharmacological substances], Moscow, 2005, p. 511)

mice [6] = experiment: Acute toxicity, mice perorally
[7] = po, anesthetized guinea pigs, orally 2 hours before the study, read-out: Antihistaminic activity, guinea pigs in vivo, peroral administration, ED50
[8] = anesthetized guinea pigs, intravenous, 5 minutes before histamine, read-out: Antihistaminic activity, guinea pigs in vivo, intravenous administration, ED50

SMILES: Cn1c(=O)[nH]c(=O)c2c1ncn2CCCCN1CCN(C(c2ccccc2)c2ccccc2)CC1.O=C(O)CCC(=O)O [Succinate, 7-/4-(4-benzhydrylpiperazinyl-1)butyl/-3-methylxanthine succinate]
pH of aqueous solution [1]: 4.85
Thermal stability (Thermal stability): good thermal stability

SMILES: Cn1c(=O)[nH]c(=O)c2c1ncn2CCCCN1CCN(C(c2ccccc2)c2ccccc2)CC1 [Oxalate, 7-/4-(4-benzhydrylpiperazinyl-1)butyl/-3-methylxanthine]
pH of aqueous solution [1]: 3.44

SMILES: CN1CCCC(n2nc(Cc3ccc(Cl)cc3)c3ccccc3c2=O)CC1 (stereo not shown) [Azelastine, reference compound]
ED50 [2, 7]: 0.015 mg/kg
ED50 [2, 8]: 0.05 mg/kg
Duration of effective blockade of H1-histamine receptors [2]: 48 h
Duration of the protective effect in the histamine-induced itch model (histamine-induced itch): diminishes significantly after 48 hours and disappears altogether after 72 hours
Acute toxicity, LD50 (mice [3]): 124-139** mg/kg

IC50 ([4]; Cavia porcellus): 127 nM
SMILES: O=C(O)COCCN1CCN(C(c2ccccc2)c2ccc(Cl)cc2)CC1 (stereo not shown) [Cetirizine, reference compound]
ED50 [2, 7]: 0.2 mg/kg
ED50 [2, 8]: 0.07 mg/kg
Duration of effective blockade of H1-histamine receptors [2]: 48 h
Duration of the protective effect in the histamine-induced itch model (histamine-induced itch): diminishes significantly after 48 hours and disappears altogether after 72 hours
Antiallergic effect, passive cutaneous anaphylactic model ([5]; dose 3 mg/kg): moderate and similar antiallergic effect

SMILES: Cn1c(=O)[nH]c(=O)c2c1ncn2CCCCN1CCN(C(c2ccccc2)c2ccccc2)CC1 [II-g, 3-methyl-7-[4-(benzhydryl-4-piperazinyl-1)butyl]xanthine]
IC50 [4]: 18 nM
Antihistaminic activity, guinea pigs in vivo, intravenous administration, ED50 ([2]; anesthetized guinea pigs, intravenous, 5 minutes before histamine): 0.02 mg/kg
Antihistaminic activity, guinea pigs in vivo, peroral administration, ED50 ([2]; anesthetized guinea pigs, orally 2 hours before the study): 0.02 mg/kg
Duration of effective blockade of H1-histamine receptors [2]: 72 h
Duration of the protective effect in the histamine-induced itch model (histamine-induced itch): remains at a stable level for 2 days and decreases only after 72 hours
Antiallergic effect, passive cutaneous anaphylactic model ([5]; dose 1 mg/kg): moderate and similar antiallergic effect
Acute toxicity, LD50 (mice [6]): 1300.0 mg/kg

SMILES: Cn1c(=O)[nH]c(=O)c2c1ncn2CCCCN1CCN(C(c2ccccc2)c2ccccc2)CC1 [Dihydrochloride, 7-/4-(4-benzhydrylpiperazinyl-1)butyl/-3-methylxanthine]
pH of aqueous solution [1]: 2.45
